ChEMBL document CHEMBL1201862, “PubChem BioAssay data set” (2004)
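How tested: cells in 96-well plates exposed to compound for 48 hours at five concentrations. At the GI50, growth is halved.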 Active and inactive are the calls of the source. Cut-off read from the data, not from the text of the source: active = GI50 up to about 1.1 µM and inactive = higher.

Columns and labels:
Experiment in all cases: DTP human tumour cell line panel, 48 h
CCRF-CEM = system: CCRF-CEM
EKVX = system: EKVX
HCT-116 = system: HCT-116
HCT-15 = system: HCT-15
K562 = system: K562
LOX IMVI = system: LOX IMVI
Malme-3M = system: Malme-3M
NCI-H23 = system: NCI-H23
OVCAR-5 = system: OVCAR-5
RXF 393 = system: RXF 393
SF-539 = system: SF-539
SK-MEL-2 = system: SK-MEL-2
SNB-19 = system: SNB-19
SR = system: SR
UACC-257 = system: UACC-257
SF-295 = system: SF-295
HOP-92 = system: HOP-92

Structure (SMILES)	GI50 (CCRF-CEM)	GI50 (EKVX)	GI50 (HCT-116)	GI50 (HCT-15)	GI50 (K562)	GI50 (LOX IMVI)	GI50 (Malme-3M)	GI50 (NCI-H23)	GI50 (OVCAR-5)	GI50 (RXF 393)	GI50 (SF-539)	GI50 (SK-MEL-2)	GI50 (SNB-19)	GI50 (SR)	GI50 (UACC-257)	GI50 (SF-295)	GI50 (HOP-92)
NCCCCCS(=O)(=O)O	> 100 µM (inactive)	> 100 µM (inactive)	> 100 µM (inactive)	> 100 µM	> 100 µM (inactive)	> 100 µM (inactive)	> 100 µM (inactive)	> 100 µM (inactive)	> 100 µM (inactive)	> 100 µM (inactive)	> 100 µM (inactive)	> 100 µM (inactive)	> 100 µM (inactive)	> 100 µM (inactive)	> 100 µM (inactive)	–	–
COc1cc(Cl)cc(O)c(=O)c1OC	12.7 µM (inactive)	25.4 µM (inactive)	35.8 µM (inactive)	25.4 µM	36.5 µM (inactive)	26.1 µM (inactive)	54.7 µM (inactive)	35.1 µM (inactive)	> 92.5 µM (inactive)	26.9 µM (inactive)	44.5 µM (inactive)	53.2 µM (inactive)	56.1 µM (inactive)	2.2 µM (inactive)	48.8 µM (inactive)	62.4 µM (inactive)	–
C/C(CN1C(=O)c2ccccc2C1=O)=N\NS(=O)(=O)c1ccc2ccccc2c1	> 100 µM (inactive)	> 100 µM (inactive)	> 100 µM (inactive)	> 100 µM	> 100 µM (inactive)	> 100 µM (inactive)	> 100 µM (inactive)	> 100 µM (inactive)	> 100 µM (inactive)	–	> 100 µM (inactive)	> 100 µM (inactive)	> 100 µM (inactive)	> 100 µM (inactive)	> 100 µM (inactive)	> 100 µM (inactive)	–
COC(=O)C1CC(c2ccc(Cl)cc2)=NO1 (stereo not drawn)	> 100 µM (inactive)	> 100 µM (inactive)	> 100 µM (inactive)	> 100 µM	> 100 µM (inactive)	–	> 100 µM (inactive)	> 100 µM (inactive)	> 100 µM (inactive)	–	> 100 µM (inactive)	> 100 µM (inactive)	–	> 100 µM (inactive)	> 100 µM (inactive)	> 100 µM (inactive)	> 100 µM (inactive)
Cc1ccc(C2CC(c3ccco3)=NN2c2ccccc2)o1 (stereo not drawn)	> 100 µM (inactive)	> 100 µM (inactive)	> 100 µM (inactive)	> 100 µM	> 100 µM (inactive)	> 100 µM (inactive)	> 100 µM (inactive)	> 100 µM (inactive)	> 100 µM (inactive)	> 100 µM (inactive)	> 100 µM (inactive)	> 100 µM (inactive)	> 100 µM (inactive)	> 100 µM (inactive)	–	> 100 µM (inactive)	–
Cn1c2ccccc2c(=O)c2c([N+](=O)[O-])ccc(NCCN)c21	–	16.5 µM (inactive)	3.73 µM (inactive)	12.9 µM	–	–	14.9 µM (inactive)	10.7 µM (inactive)	13.8 µM (inactive)	9.62 µM (inactive)	8.24 µM (inactive)	15.3 µM (inactive)	14.1 µM (inactive)	20.1 µM (inactive)	13.6 µM (inactive)	12.5 µM (inactive)	6.76 µM (inactive)
C/N=C(\NC(=S)N(C)C)N(C)C	> 100 µM (inactive)	> 100 µM (inactive)	> 100 µM (inactive)	> 100 µM	> 100 µM (inactive)	–	> 100 µM (inactive)	> 100 µM (inactive)	> 100 µM (inactive)	> 100 µM (inactive)	> 100 µM (inactive)	> 100 µM (inactive)	> 100 µM (inactive)	> 100 µM (inactive)	> 100 µM (inactive)	> 100 µM (inactive)	> 100 µM (inactive)
COC(=O)c1cc(O)ccc1O [METHYL 2,5-DIHYDROXYBENZOATE]	> 100 µM (inactive)	> 100 µM (inactive)	–	> 100 µM	> 100 µM (inactive)	> 100 µM (inactive)	> 100 µM (inactive)	–	> 100 µM (inactive)	> 100 µM (inactive)	> 100 µM (inactive)	> 100 µM (inactive)	> 100 µM (inactive)	–	> 100 µM (inactive)	> 100 µM (inactive)	> 100 µM (inactive)
O=C1/C(=C/c2ccc(C(=O)O)cc2)CNC/C1=C\c1ccc(C(=O)O)cc1	> 100 µM (inactive)	–	> 100 µM (inactive)	> 100 µM	> 100 µM (inactive)	–	> 100 µM (inactive)	> 100 µM (inactive)	> 100 µM (inactive)	> 100 µM (inactive)	> 100 µM (inactive)	–	–	> 100 µM (inactive)	> 100 µM (inactive)	> 100 µM (inactive)	> 100 µM (inactive)
COC1=CC(=O)C2C(C1=O)C(c1ccc(OC)c(OC)c1)[C@H]2C (stereo partly drawn)	22.6 µM (inactive)	> 100 µM (inactive)	18 µM (inactive)	18.2 µM	23.4 µM (inactive)	22.9 µM (inactive)	19.6 µM (inactive)	19.9 µM (inactive)	> 100 µM (inactive)	19.7 µM (inactive)	> 100 µM (inactive)	> 100 µM (inactive)	> 100 µM (inactive)	–	18.6 µM (inactive)	> 100 µM (inactive)	20 µM (inactive)
O=C1c2ccccc2C2(O)Nc3cc(O)ccc3C12O (stereo not drawn)	> 100 µM (inactive)	> 100 µM (inactive)	> 100 µM (inactive)	> 100 µM	> 100 µM (inactive)	> 100 µM (inactive)	> 100 µM (inactive)	> 100 µM (inactive)	> 100 µM (inactive)	> 100 µM (inactive)	> 100 µM (inactive)	> 100 µM (inactive)	> 100 µM (inactive)	–	–	> 100 µM (inactive)	> 100 µM (inactive)
CCCCN(CCCC)CCCCNc1c(C)cnc2cc(Cl)ccc12	49.1 µM (inactive)	20 µM (inactive)	11.1 µM (inactive)	29.9 µM	10.3 µM (inactive)	14.2 µM (inactive)	21 µM (inactive)	38.7 µM (inactive)	2.79 µM (inactive)	13.3 µM (inactive)	13.4 µM (inactive)	21.2 µM (inactive)	52.5 µM (inactive)	–	14.6 µM (inactive)	19.1 µM (inactive)	13.5 µM (inactive)
N#CCCN(CCC#N)c1ccc(/C=C2\N=C(CN3C(=O)c4ccccc4C3=O)OC2=O)cc1	–	> 100 µM (inactive)	> 100 µM (inactive)	> 100 µM	> 100 µM (inactive)	> 100 µM (inactive)	> 100 µM (inactive)	–	> 100 µM (inactive)	–	> 100 µM (inactive)	> 100 µM (inactive)	> 100 µM (inactive)	> 100 µM (inactive)	> 100 µM (inactive)	> 100 µM (inactive)	–
Cc1cc(C)nc(NS(=O)(=O)c2ccc(Nc3c4ccc(Cl)cc4nc4c(C(=O)NCCN(C)C)cccc34)cc2)n1	> 100 µM (inactive)	> 100 µM (inactive)	> 100 µM (inactive)	> 100 µM	59.2 µM (inactive)	> 100 µM (inactive)	> 100 µM (inactive)	> 100 µM (inactive)	> 100 µM (inactive)	> 100 µM (inactive)	> 100 µM (inactive)	–	> 100 µM (inactive)	55.7 µM (inactive)	> 100 µM (inactive)	> 100 µM (inactive)	78 µM (inactive)
